# Measurements from US11957139B2, “Compositions for improving nitrogen utilization in a ruminant” (Evonik Operations GmbH, priority 2016, dated 2024).
# Where two headings read alike, the source gives them in different places.
# Tests used:
# Holstein heifers [1] = experiment: Apparent fiber digestibility after ruminal versus abomasal infusion of urea; type: in vivo
# Source text: The experiment included a four-week adaptation period to a basal diet (in this case mimicking a winter tropical diet (winter tropical climate being an Aw climate) in addition to the distinct experimental periods (i.e. one experimental period per treatment regimen listed in Table 1), each lasting fourteen days.
# Each heifer was rumen-cannulated. A tube was inserted into the abomasum via the rumen cannula to bypass the rumen.
# The experiment consisted of two treatment groups subjected to different treatment regimens.
# After the adaptation period, the heifers were exposed to the treatment regimens (i.e. consecutively, starting with treatment 1 and followed by treatment 2) as described in Table 1 (2 weeks per treatment regimen).
# Heifers were fed low quality hay twice a day (08 h 30 and 16 h 30). The heifers were allowed to eat ad libitum during both feeding events.
# An amount of one kilogram of compound feed (referred to as the ‘compound feed trial’), as a meal, was given in the morning (08 h 30) through the cannula (see Table 2). The details over the compositions of hay and compound feed (‘compound feed adaptation’ and ‘compound feed trial’) are presented in Table 3 below. Animals had free access to water troughs throughout the day.
# All heifers were simultaneously infused in the rumen and the abomasum. This experimental design allowed each heifer to receive every treatment (consecutively), which provided 4 replicates per treatment. The two experimental periods described in Table 1 lasted 14 days each. For each individual treatment regimen, the fourteen-day period consisted of 8 days of adaptation, 4 days for sampling, and 2 days of rest without any infusions.
# Whenever the treatment solution was infused in the rumen, a placebo solution (e.g. saline solution) was infused in the abomasum and whenever the treatment solution was infused in the abomasum, a placebo solution (e.g. water) was infused in the rumen. In the present case, it was necessary to infuse a saline solution in the abomasum (as opposed to water) in order to avoid problems related to osmotic pressure due to the small volume of the abomasum. This situation requires the use of a solution, which has an osmotic pressure similar to that of blood. A physiological saline solution fulfils this requirement. […] Therefore, infusion of water is suitable for the rumen.
# Each heifer was equipped with two infusion lines via the cannula bung. Specifically, the first line delivered the solution straight into the rumen; the second line passed through the rumen into the omasum, using a rubber flange as anchor, delivering the pumped solution into the abomasum (Gressley et al. (2006)).
# Infusate levels and infusion rates were checked 3 times per day (at 09:00 h;16:00 h and 21:00 h). Whenever necessary, manifold tubes with different inner diameter were replaced to adjust rate or level of solution, aiming to reach 10 L (or 5 L during the first two days of the period) infused continually in 24 h. The infusion rate was set at 3.5 mL/min (5 L/d) for the first two days of adaptation in each experimental period and 6.9 mL/min (10 L/d) for the remaining days.
# Samples of compound feed and hay were taken from day 09 to 12 of each experimental period. After samples were collected, a portion was used to determine dried matter content (DM) at 60° C. 72 h and the rest was stored at −20° C. in a large bag labelled with the period number and trial code.
# Holstein heifers [2] = conditions: 150 g urea equivalent infused into rumen; 0-12 h post-infusion; FIG. 18
# Source text: Three non-lactating, non-pregnant Holstein heifers were used for the experiment. The Holstein heifers were on average 48±0.5 months of age and weighed on average 800 kg. Each heifer was rumen-cannulated. The experimental design was a 3×3 Latin Square, involving 3 treatments, 3 periods and 3 animals. Experimental unit is the combination animal×period, totalizing 9 experimental units.
# The experiment consisted of 3 treatment regimens (i.e. treatment groups 1, 2, and 3). Specifically, each treatment group differed with respect to the NPN composition they received.
# Heifers were housed in a tie-stall barn with individual water and feed troughs, rubber mattresses, and wood shaving bedding. The tie-stall was cleaned and the wood shaving replaced daily. Heifers were fed low quality hay ad libitum. Each experimental period last 4 days in which test products were infused in the rumen (day one) and samples were taken on the following 48 h.
# Rumen fluid samples were taken at 0, 0.5, 1, 2, 3, 6, and 12 h post-infusion through a tube adapted to the rumen cannula.
# lactating heifers = experiment: Milk production after ruminal versus abomasal infusion (Example 4); type: in vivo, Holstein heifers; conditions: infused in the abomasum compared to equivalent amount in the rumen
# Source text: The experimental procedure and animal treatments is the same as described above for example 1, except that the Holstein heifers were lactating heifers.
# Holstein heifers [3] = experiment: Nitrogen intake, excretion, digestibility and retention after ruminal infusion of urea sources; type: in vivo
# Method: Each heifer was rumen-cannulated.
# On the first and second day of experimental period, faeces were collected during 48 h. During this period wood shaves were withdrawn from the mattresses. On day 1, before the ruminal infusion of tested articles, a baseline sample was taken directly from the rectum of each animal. From the moment of ruminal incubation, total faeces were collected for 48 hours. During collection days, faeces were well homogenized, weighted, and a sub-sample (≈200 g) taken on the following hours of the day: 0800 (only for day 2) 1100, 1500 and 1900.
# Holstein heifers [4] = experiment: Somatic growth after ruminal versus abomasal infusion (Example 3); type: in vivo; conditions: infused in the abomasum compared to equivalent amount in the rumen; at least 2 months
# Source text: Heifers are individually weighed on the first day of each experimental period (i.e. day 1) and on the last day of the experimental period (i.e., after at least 2 months, such as after 6 months). […] An increase in body weight indicates an increase in somatic growth while a decrease or no change in body weight indicates a decrease in somatic growth or unchanged somatic growth, respectively.
# Holstein heifers [5] = tested on: Holstein heifers
# Method: The objective of this experiment was to evaluate the effects of ruminal versus abomasal infusion of ammonia (an equivalent source of NPN) on food intake in ruminants.
# Feed intake was calculated according to the following formula: Feed intake=[amount of feed provided at the beginning of the day]−[amount of feed left intact (i.e. not eaten) after a period of 24 hours]). Results
# [6] = urea 127 g/day infused into the abomasum over 24 h (UA)
# [7] = urea 127 g/day infused into the rumen once a day (UR)
# [8] = during the 48 hours following N infusion into rumen
# [9] = ammonia infused into abomasum over 24 h (AA)
# [10] = ammonia infused into rumen over 24 h (AR)
compound,measurement,setting,value
urea,"Apparent fiber digestibility, Dry matter",Holstein heifers [1]; [6],51.36%
same,"Apparent fiber digestibility, Neutral detergent fiber",Holstein heifers [1]; [6],48.27%
same,"Apparent fiber digestibility, Organic matter",Holstein heifers [1]; [6],52.79%
same,"Apparent fiber digestibility, Dry matter",Holstein heifers [1]; [7],49.35%
same,"Apparent fiber digestibility, Neutral detergent fiber",Holstein heifers [1]; [7],43.75%
same,"Apparent fiber digestibility, Organic matter",Holstein heifers [1]; [7],50.18%
same,"apparent fiber digestibility, in words",Holstein heifers [1]; urea in the abomasum compared to urea in the rumen,increased
same,"ruminal ammonia concentration over time, in words",Holstein heifers [2],higher
same,milk production at the end of the treatment,lactating heifers,increased milk production
same,N digestibility,Holstein heifers [3]; ((N intake − N excreted)/N intake) * 100,61.81%
same,Total N excretion,"Holstein heifers [3]; Faecal N excretion + Urinary N excretion, 48 h",228.22 g
same,N excretion faeces,Holstein heifers [3]; [8],119.92 g
same,N excretion urine,Holstein heifers [3]; [8],108.30 g
same,N Intake,Holstein heifers [3]; total N intake in 48 h including N infusion into rumen,307.58 g
same,body weight at the end of the treatment,Holstein heifers [4],increased body weight
N [ammonia],milk production at the end of the treatment,lactating heifers,increased milk production
same,"Feed intake, Crude Protein (Feed)",Holstein heifers [5]; [9],0.581 kg/day
same,"Feed intake, Crude Protein (Total)",Holstein heifers [5]; [9],0.952 kg/day
same,"Feed intake, Hay Dry Matter",Holstein heifers [5]; [9],6.09 kg/day
same,"Feed intake, Neutral detergent fiber",Holstein heifers [5]; [9],4.38 kg/day
same,"Feed intake, Organic Matter",Holstein heifers [5]; [9],6.58 kg/day
same,"Feed intake, Total Dry Matter",Holstein heifers [5]; [9],6.97 kg/day
same,"Feed intake, Crude Protein (Feed)",Holstein heifers [5]; [10],0.537 kg/day
same,"Feed intake, Crude Protein (Total)",Holstein heifers [5]; [10],0.907 kg/day
same,"Feed intake, Hay Dry Matter",Holstein heifers [5]; [10],5.37 kg/day
same,"Feed intake, Neutral detergent fiber",Holstein heifers [5]; [10],3.87 kg/day
same,"Feed intake, Organic Matter",Holstein heifers [5]; [10],5.90 kg/day
same,"Feed intake, Total Dry Matter",Holstein heifers [5]; [10],6.26 kg/day
same,"feed intake of hay and total nutrient, in words",Holstein heifers [5]; ammonia into abomasum relative to ammonia in the rumen,increase in feed intake
same,body weight at the end of the treatment,Holstein heifers [4],increased body weight
